In brackets after ≈: the same amount, converted by molar mass. Numbered stars: 1 amine (or outer) side, 2 acyl side, 3 side chain; on linkers, the order of the positions; unused ones are H or OH. Square brackets hold non-standard residues; d marks the D form. Peptide text beside a SMILES is read from it. * marks the point of attachment. X8 = NC(=O)CN(C[C@H](Cc1ccccc1)N*)S(=O)(=O)c1cc(C(F)(F)F)cc(C(F)(F)F)c1; X4 = N[C@@H](Cc1ccccc1)CN(CC(=O)[*:2])[*:1]; X7 = O=S(=O)(c1cc(C(F)(F)F)cc(C(F)(F)F)c1)*; X2 = CC(C)C[C@H](N)CN(CC(=O)[*:2])[*:1]; X1 = O=S(=O)(c1ccc(C(F)(F)F)cc1)*
Legend:
[1] = test system: Pseudomonas aeruginosa; experiment: Antimicrobial activity against multidrug-resistant Pseudomonas aeruginosa 050 assessed as inhibition of visible bacterial growth incubated for 18 hrs by broth-dilution method; assay type: functional
[2] = test system: Pseudomonas aeruginosa; experiment: Antimicrobial activity against multidrug-resistant Pseudomonas aeruginosa 061 assessed as inhibition of visible bacterial growth incubated for 18 hrs by broth-dilution method; assay type: functional
[3] = test system: Pseudomonas aeruginosa; experiment: Antimicrobial activity against multidrug-resistant Pseudomonas aeruginosa 085 assessed as inhibition of visible bacterial growth incubated for 18 hrs by broth-dilution method; assay type: functional
[4] = test system: Pseudomonas aeruginosa; experiment: Antimicrobial activity against multidrug-resistant Pseudomonas aeruginosa 119 assessed as inhibition of visible bacterial growth incubated for 18 hrs by broth-dilution method; assay type: functional
[5] = test system: Pseudomonas aeruginosa; experiment: Antimicrobial activity against multidrug-resistant Pseudomonas aeruginosa 124 assessed as inhibition of visible bacterial growth incubated for 18 hrs by broth-dilution method; assay type: functional
[6] = test system: Pseudomonas aeruginosa; experiment: Antimicrobial activity against multidrug-resistant Pseudomonas aeruginosa 125 assessed as inhibition of visible bacterial growth incubated for 18 hrs by broth-dilution method; assay type: functional
[7] = test system: Pseudomonas aeruginosa; experiment: Antimicrobial activity against multidrug-resistant Pseudomonas aeruginosa 156 assessed as inhibition of visible bacterial growth incubated for 18 hrs by broth-dilution method; assay type: functional
[8] = test system: Pseudomonas aeruginosa; experiment: Antimicrobial activity against multidrug-resistant Pseudomonas aeruginosa 157 assessed as inhibition of visible bacterial growth incubated for 18 hrs by broth-dilution method; assay type: functional
[9] = test system: Staphylococcus aureus; experiment: Antibacterial activity against antibiotics-resistant Staphylococcus aureus ATCC 33591 assessed as reduction in microbial growth; assay type: functional
[10] = test system: Pseudomonas aeruginosa; experiment: Antibacterial activity against antibiotics-resistant Pseudomonas aeruginosa […] assessed as reduction in microbial growth; assay type: functional
[11] = test system: Escherichia coli; experiment: Antimicrobial activity against Escherichia coli ATCC 25922 assessed as inhibition of visible bacterial growth incubated for 18 hrs by broth-dilution method; assay type: functional
[12] = test system: Pseudomonas aeruginosa; experiment: Antimicrobial activity against Pseudomonas aeruginosa ATCC 27853 assessed as inhibition of visible bacterial growth incubated for 18 hrs by broth-dilution method; assay type: functional
[13] = test system: Acinetobacter baumannii; experiment: Antimicrobial activity against Acinetobacter baumannii ATCC 19606 assessed as inhibition of visible bacterial growth incubated for 18 hrs by broth-dilution method; assay type: functional
[14] = test system: Salmonella typhimurium; experiment: Antimicrobial activity against Salmonella typhimurium ATCC 14028 assessed as inhibition of visible bacterial growth incubated for 18 hrs by broth-dilution method; assay type: functional, Salmonella enterica subsp. enterica serovar Typhimurium; conditions: Salmonella enterica
[15] = test system: Staphylococcus aureus; experiment: Antimicrobial activity against Staphylococcus aureus ATCC 25923 assessed as inhibition of visible bacterial growth incubated for 18 hrs by broth-dilution method; assay type: functional
[16] = test system: Staphylococcus epidermidis; experiment: Antimicrobial activity against Staphylococcus epidermidis ATCC 12228 assessed as inhibition of visible bacterial growth incubated for 18 hrs by broth-dilution method; assay type: functional
[17] = test system: Bacillus subtilis; experiment: Antimicrobial activity against Bacillus subtilis ATCC 23857 assessed as inhibition of visible bacterial growth incubated for 18 hrs by broth-dilution method; assay type: functional
[18] = test system: Staphylococcus aureus; experiment: Antimicrobial activity against methicillin-resistant Staphylococcus aureus ATCC 33591 assessed as inhibition of visible bacterial growth incubated for 18 hrs by broth-dilution method; assay type: functional
[19] = test system: Erythrocyte; experiment: Hemolytic activity against mouse Red blood cell incubated for 1 hr; assay type: toxicity, cell-based
[20] = test system: Staphylococcus aureus; experiment: Antimicrobial activity against Staphylococcus aureus ATCC 25923 assessed as fold change in MIC in presence of salt solution; assay type: functional
[21] = test system: Staphylococcus aureus; experiment: Antimicrobial activity against Staphylococcus aureus ATCC 25923 assessed as reduction in bacterial growth in presence of Ca2+; assay type: functional
[22] = Stability in human serum assessed as half life measured for 5 hrs by RP-HPLC analysis; assay type: ADME, cell-free

C[C@H]1[C@H](NC(=O)/C(=N\OC(C)(C)C(=O)O)c2csc(N)n2)C(=O)N1S(=O)(=O)O [AZTREONAM]
MIC [1]: 8 µg/mL (≈ 18.4 µM)
MIC [2]: 256 µg/mL (≈ 588 µM)
MIC [3]: 8 µg/mL (≈ 18.4 µM)
MIC [4]: 8 µg/mL (≈ 18.4 µM)
MIC [5]: 4 µg/mL (≈ 9.19 µM)
MIC [6]: 8 µg/mL (≈ 18.4 µM)
MIC [7]: 256 µg/mL (≈ 588 µM)
MIC [8]: 8 µg/mL (≈ 18.4 µM)
MIC [9]: 32 µg/mL
MIC [10]: 32 µg/mL

CC(C)C[C@H](NC(=O)[C@H](C)NC(=O)[C@H](CCCCN)NC(=O)[C@H](CC(C)C)NC(=O)[C@@H](N)Cc1ccccc1)C(=O)N[C@@H](CCCCN)C(=O)N[C@@H](CCCCN)C(=O)N[C@@H](Cc1ccccc1)CN(CC(N)=O)S(=O)(=O)c1cc(C(F)(F)F)cc(C(F)(F)F)c1 (H-FLKALKK-X8)
MIC [11]: 32 µg/mL (≈ 24.4 µM)
MIC [12]: 16 µg/mL (≈ 12.2 µM)
MIC [13]: 128 µg/mL (≈ 97.5 µM)
MIC [14]: 32 µg/mL (≈ 24.4 µM)
MIC [15]: 16 µg/mL (≈ 12.2 µM)
MIC [16]: 16 µg/mL (≈ 12.2 µM)
MIC [17]: 16 µg/mL (≈ 12.2 µM)
MIC [18]: 16 µg/mL (≈ 12.2 µM)
MHC [19]: 256 µg/mL

CC(C)C[C@H](N)CN(CC(=O)N[C@@H](CCCCN)C(=O)N[C@@H](CC(C)C)C(=O)N[C@@H](CC(C)C)C(=O)N[C@@H](CCCCN)C(=O)N[C@@H](CCCCN)C(=O)N[C@@H](CC(C)C)C(=O)N[C@@H](CC(C)C)C(N)=O)S(=O)(=O)c1cc(C(F)(F)F)cc(C(F)(F)F)c1 (X7-[X2]KLLKKLL-NH2)
MIC [11]: 8 µg/mL (≈ 6.22 µM)
MIC [12]: 4 µg/mL (≈ 3.11 µM)
MIC [13]: 16 µg/mL (≈ 12.4 µM)
MIC [14]: 16 µg/mL (≈ 12.4 µM)
MIC [15]: 8 µg/mL (≈ 6.22 µM)
MIC [16]: 16 µg/mL (≈ 12.4 µM)
MIC [17]: 16 µg/mL (≈ 12.4 µM)
MIC [18]: 4 µg/mL (≈ 3.11 µM)
MHC [19]: 128 µg/mL
fold change (FC) [20]: 0.25
MIC [21]: 32 µg/mL
half-life [22]: 3.33 h

CC(C)C[C@H](NC(=O)[C@H](CC(C)C)NC(=O)[C@H](CCCCN)NC(=O)[C@H](CCCCN)NC(=O)[C@H](CC(C)C)NC(=O)[C@H](CC(C)C)NC(=O)[C@H](CCCCN)NC(=O)CN(C[C@@H](N)Cc1ccccc1)S(=O)(=O)c1cc(C(F)(F)F)cc(C(F)(F)F)c1)C(N)=O (X7-[X4]KLLKKLL-NH2)
MIC [11]: 8 µg/mL (≈ 6.06 µM)
MIC [12]: 8 µg/mL (≈ 6.06 µM)
MIC [13]: 16 µg/mL (≈ 12.1 µM)
MIC [14]: 8 µg/mL (≈ 6.06 µM)
MIC [15]: 4 µg/mL (≈ 3.03 µM)
MIC [16]: 8 µg/mL (≈ 6.06 µM)
MIC [17]: 4 µg/mL (≈ 3.03 µM)
MIC [18]: 8 µg/mL (≈ 6.06 µM)
MHC [19]: 32 µg/mL
half-life [22]: 5.6 h

CC(C)C[C@H](NC(=O)[C@H](CC(C)C)NC(=O)[C@H](CCCCN)NC(=O)[C@H](CCCCN)NC(=O)[C@H](CC(C)C)NC(=O)[C@H](C)NC(=O)[C@H](CCCCN)NC(=O)CN(C[C@@H](N)Cc1ccccc1)S(=O)(=O)c1cc(C(F)(F)F)cc(C(F)(F)F)c1)C(N)=O (X7-[X4]KALKKLL-NH2)
MIC [11]: 16 µg/mL (≈ 12.5 µM)
MIC [12]: 16 µg/mL (≈ 12.5 µM)
MIC [13]: 16 µg/mL (≈ 12.5 µM)
MIC [14]: 8 µg/mL (≈ 6.26 µM)
MIC [15]: 8 µg/mL (≈ 6.26 µM)
MIC [16]: 8 µg/mL (≈ 6.26 µM)
MIC [17]: 4 µg/mL (≈ 3.13 µM)
MIC [18]: 8 µg/mL (≈ 6.26 µM)
MHC [19]: 128 µg/mL

CC(C)C[C@H](NC(=O)[C@H](CC(C)C)NC(=O)[C@H](CCCCN)NC(=O)[C@H](CCCCN)NC(=O)[C@H](CC(C)C)NC(=O)[C@H](CC(C)C)NC(=O)[C@H](CCCCN)NC(=O)CN(C[C@@H](N)Cc1ccccc1)S(=O)(=O)c1ccc(C(F)(F)F)cc1)C(N)=O (X1-[X4]KLLKKLL-NH2)
MIC [11]: 8 µg/mL (≈ 6.39 µM)
MIC [12]: 8 µg/mL (≈ 6.39 µM)
MIC [13]: 16 µg/mL (≈ 12.8 µM)
MIC [14]: 8 µg/mL (≈ 6.39 µM)
MIC [15]: 8 µg/mL (≈ 6.39 µM)
MIC [16]: 4 µg/mL (≈ 3.19 µM)
MIC [17]: 4 µg/mL (≈ 3.19 µM)
MIC [18]: 4 µg/mL (≈ 3.19 µM)
MHC [19]: 32 µg/mL
fold change (FC) [20]: 0.25
MIC [21]: 32 µg/mL
half-life [22]: 7.96 h

Reference: ChEMBL document CHEMBL5537135, “Novel antimicrobial peptides modified with fluorinated sulfono-γ-AA having high stability and targeting multidrug-resistant bacteria infections” (Eur J Med Chem, 2024)
